From US9221765B2, “Inhibition and dispersion of bacterial biofilms with benzimidazole derivatives” (North Carolina State University, priority 2009, dated 2015) come the findings set out here.

The test system of experiment [1] is MRSA. Description: Inhibition of MRSA biofilm formation (crystal violet). The class given is cell-based, Staphylococcus aureus. The note with it: for IC50: concentration that inhibits 50% biofilm development; for ability to inhibit biofilm formation: 100 μM (highest concentration tested). Here is the method:
(§1) A dose-response study was then initiated in which both the IC50 and EC50 value of each compound towards the bacterial strains were determined (Table 1). Here, IC50 is defined as the concentration of compound that inhibits 50% biofilm development while EC50 is defined as the concentration of compound that disperses 50% of a pre-formed biofilm.
(§2) Procedure to Determine the Inhibitory Effect of Test Compounds on E. faecium, MRSA, S. epidermidis, PAO1 and MDRAB Biofilm Formation:
(§3) Inhibition assays were performed by taking an overnight culture of bacterial strain and subculturing it at an OD600 of 0.01 into the necessary media (brain heart infusion for E. faecium, tryptic soy broth with a 0.5% glucose supplement (TSBG) for MRSA, Luria-Bertani (LB) media for MDRAB, Luria-Bertani media without NaCl (LBNS) for PAO1 and tryptic soy broth with a 0.5% glucose supplement and a 3.0% NaCl supplement (TGN) for S. epidermidis. Stock solutions of predetermined concentrations of the test compound were then made in the necessary media. These stock solutions were aliquoted (100 μL) into the wells of the 96-well PVC microtiter plate. Sample plates were then wrapped in GLAD Press n′ Seal® followed by an incubation under stationary conditions for 24 h at 37° C. After incubation, the media was discarded from the wells and the plates were washed thoroughly with water. Plates were then stained with 100 μL of 0.1% solution of crystal violet (CV) and then incubated at ambient temperature for 30 min. Plates were washed with water again and the remaining stain was solubilized with 200 μL of 95% ethanol. A sample of 125 μL of solubilized CV stain from each well was transferred to the corresponding wells of a polystyrene microtiter dish. Biofilm inhibition was quantitated by measuring the OD540 of each well in which a negative control lane wherein no biofilm was formed served as a background and was subtracted out.
as §3, with “2-(2-amino-1H-benzo[d]imidazol-6-ylcarbamoyl)-3,4,5,6-tetrachlorobenzoic acid hydrochloride” for “test compound”, “media. Samples were then doped with 10.0 μM FeSO4 with samples with no test compound to examine effects of 10.0 μM FeSO4 on biofilm formation.” for “media.”

The test system of experiment [2] is vancomycin-resistant Enterococcus faecium (VRE). Description: Inhibition of VRE (E. faecium) biofilm formation (crystal violet). The class given is cell-based. To be noted: for ability to inhibit biofilm formation: 100 μM (highest concentration tested). Here is the method:
as §1, §2, §3
as §3, with “2-(2-amino-1H-benzo[d]imidazol-6-ylcarbamoyl)-3,4,5,6-tetrachlorobenzoic acid hydrochloride” for “test compound”, “media. Samples were then doped with 10.0 μM FeSO4 with samples with no test compound to examine effects of 10.0 μM FeSO4 on biofilm formation.” for “media.”

Experiment [3] concerns S. epidermidis. The experiment is described as follows: Inhibition of S. epidermidis biofilm formation (crystal violet). The class given is cell-based, Staphylococcus epidermidis. The note with it: for IC50: concentration that inhibits 50% biofilm development; for ability to inhibit biofilm formation: 100 μM (highest concentration tested). Here is the method: as §1, §2, §3
as §3, with “2-(2-amino-1H-benzo[d]imidazol-6-ylcarbamoyl)-3,4,5,6-tetrachlorobenzoic acid hydrochloride” for “test compound”, “media. Samples were then doped with 10.0 μM FeSO4 with samples with no test compound to examine effects of 10.0 μM FeSO4 on biofilm formation.” for “media.”

In experiment [4] the test system is MRSA. The experiment is described as follows: Dispersion of preformed MRSA biofilm. The class given is cell-based, Staphylococcus aureus. The note with it: concentration that disperses 50% of a pre-formed biofilm. Here is the method:
as §1
(§4) Procedure to Determine the Dispersal Effect of Test Compounds on E. faecium, MRSA and S. epidermidis Preformed Biofilms:
(§5) Dispersion assays were performed by taking an overnight culture of bacterial strain and subculturing it at an OD600 of 0.01 into the necessary media (brain heart infusion for E. faecium, tryptic soy broth with a 0.5% glucose supplement (TSBG) for MRSA and tryptic soy broth with a 0.5% glucose supplement and a 3.0% NaCl supplement (TGN) for S. epidermidis. The resulting bacterial suspension was aliquoted (100 μL) into the wells of a 96-well PVC microtiter plate. Plates were then wrapped in GLAD Press n′ Seal® followed by an incubation under stationary conditions at ambient temperature to establish the biofilms. After 24 h, the media was discarded from the wells and the plates were washed thoroughly with water. Stock solutions of predetermined concentrations of the test compound were then made in the necessary media. These stock solutions were aliquoted (100 μL) into the wells of the 96-well PVC microtiter plate with the established biofilms. Media alone was added to a subset of the wells to serve as a control. Sample Plates were then incubated for 24 h at 37° C. After incubation, the media was discarded from the wells and the plates were washed thoroughly with water. Plates were then stained with 100 μL of 0.1% solution of crystal violet (CV) and then incubated at ambient temperature for 30 min. Plates were washed with water again and the remaining stain was solubilized with 200 μL of 95% ethanol. A sample of 125 μL of solubilized CV stain from each well was transferred to the corresponding wells of a polystyrene microtiter dish. Biofilm dispersion was quantitated by measuring the OD540 of each well in which a negative control lane wherein no biofilm was formed served as a background and was subtracted out.

In experiment [5] the test system is vancomycin-resistant Enterococcus faecium (VRE). The experiment is described as follows: Dispersion of preformed VRE (E. faecium) biofilm. The class given is cell-based. The note with it: concentration that disperses 50% of a pre-formed biofilm. Here is the method: as §1, §4, §5
Experiment [6] relates to S. epidermidis. The experiment is described as follows: Dispersion of preformed S. epidermidis biofilm. The note with it: concentration that disperses 50% of a pre-formed biofilm. The class given is cell-based, Staphylococcus epidermidis. Here is the method:
as §1, §4, §5

Experiment [7] can be described thus: Divalent zinc binding via 1H NMR spectroscopy. To be noted: 0, 0.5, 1.0 equivalents ZnCl2; DMSO. As for the experimental part: Given this Zn(II)-dependence, the ability of 3 to bind zinc directly was determined to ascertain if the mechanism was potentially occurring via a Zn(II)-binding mechanism. To answer this question, an ^1H NMR binding experiment was performed in which the chemical shifts of 3 were measured in the presence of 0 equivalents, 0.5 equivalents, and 1.0 equivalents ZnCl2. […] As a control, the same experiment was performed with FeSO4.
Procedure to Determine the Divalent Zinc Binding Effects of Test Compounds via ^1H NMR Spectroscopy:
^1H NMR Spectra were obtained of the test compounds in DMSO on a 400 MHz NMR in the absence and in the presence of one equivalent of ZnCl2. 2-(2-amino-1H-benzo[d]imidazol-5-ylcarbamoyl)-3,4,5,6-tetrachlorobenzoic acid hydrochloride was tested at a 228 mM. 2,3,4,5-tetrachloro-6-(phenylcarbamoyl)benzoic acid was tested at 275 mM. 1H-benzo[d]imidazol-2-amine hydrochloride was tested at 649 mM.

Experiment [8] relates to E. faecium, MRSA and S. epidermidis. The experiment is described as follows: Mitigating effects of zinc on biofilm formation inhibition. The class given is cell-based. The note with it: 200.0 μM ZnCl2 alone, no test compound.
From the text: Next, Zn(II) homeostasis was examined. Zn(II) has been implicated in the pathogenesis of Gram-positive bacterial infections and may be an important regulator of biofilm formation (Conrady, D. G.; Brescia, C. C.; Horii, K.; Weiss, A. A.; Hassett, D. J.; Herr, A. B. Proceedings of the National Academy of Sciences of the United States of America 2008, 105, 19456-19461).
Procedure to Determine the Mitigating Effects of Zinc on E. faecium, MRSA and S. epidermidis Biofilm Formation Inhibition Induced by 2-(2-Amino-1H-Benzo[d]Imidazol-6-Ylcarbamoyl)-3,4,5,6-Tetrachlorobenzoic Acid Hydrochloride:
as §3, with “50.0 μM 2-(2-amino-1H-benzo[d]imidazol-6-ylcarbamoyl)-3,4,5,6-tetrachlorobenzoic acid hydrochloride” for “predetermined concentrations of the test compound”, “media. Samples were then doped with 25.0, 50.0, 75.0, 100.0, 150.0 and 200.0 μM ZnCl2 with controls in which no test compound was added to examine effects of 200.0 μM ZnCl2 on biofilm formation.” for “media.”

[9] abbreviates: VRE, concentration that inhibits 50% biofilm development, read-out: IC50.

Where a name gives a salt, the structure may show the parent alone. Read-outs that look alike come from different tables or passages of the source.

Regarding `Nc1nc2ccc(NC(=O)[C@H]3[C@@H](C(=O)O)C4(Cl)C(Cl)=C(Cl)C3(Cl)C4(Cl)Cl)cc2[nH]1` (relative stereo) [Compound 4], the figures for the IC50 in experiment [1] (read-out: IC50), in experiment [2] (setting [9]) and in experiment [3] were 1.5 ± 0.4 µM, 210 ± 35 µM and 1.9 ± 0.4 µM, respectively. The EC50 – broadly, the midpoint of the concentration-response curve – in experiment [4] (read-out: EC50 (converted)) was 6.6 µM; in experiment [5] (read-out: EC50 (converted)) it was 280 µM; in experiment [6] it was 19 µM.

Regarding `Nc1nc2ccc(NC(=O)[C@@H]3C4C=CC(C4)[C@@H]3C(=O)O)cc2[nH]1` (stereo partly drawn) [Compound 5, (2S,3R)-3-(2-amino-1H-benzo[d]imidazol-6-ylcarbamoyl)bicyclo[2.2.1]hept-5-ene-2-carboxylic acid hydrochloride], the IC50 (in general, the concentration that inhibits the measured activity by half) in experiment [1] (Staphylococcus aureus) stood at 16 ± 2.9 µM; in experiment [2] it was 63 ± 9.1 µM; in experiment [3] (Staphylococcus epidermidis), 4.1 ± 2 µM. Also, the EC50 in experiment [4] (Staphylococcus aureus) is 63 µM; in experiment [5], 107 µM; in experiment [6] (Staphylococcus epidermidis), 45 µM.

Take `CC(C)(CC(=O)O)CC(=O)Nc1ccc2nc(N)[nH]c2c1` [Compound 7]: the values for the IC50 in experiment [1] (read-out: IC50), in experiment [2] (setting [9]) and in experiment [3] were 69 ± 2.7 µM, 0.9 ± 0.3 µM and 240 ± 20 µM, respectively. The 50% effective concentration (EC50) in experiment [4] (read-out: EC50 (converted)) was 205 µM; in experiment [5] (read-out: EC50 (converted)), 94 µM; in experiment [6] it was 260 µM.

For `Nc1nc2ccc(NC(=O)c3cccc4cccc(C(=O)O)c34)cc2[nH]1` [Compound 9, 8-(2-amino-1H-benzo[d]imidazol-6-ylcarbamoyl)-1-naphthoic acid hydrochloride], the IC50 in experiment [1] (Staphylococcus aureus) was greater than 300 µM; in experiment [2] it was 0.9 ± 0.4 µM; in experiment [3] (Staphylococcus epidermidis), 6.2 ± 1.2 µM. Besides, the EC50 is greater than 300 µM in experiment [4] (Staphylococcus aureus), 6.3 µM in experiment [5] and 30 µM in experiment [6] (Staphylococcus epidermidis).

As for `Nc1nc2ccc(N3C(=O)CC4(CCC4)CC3=O)cc2[nH]1` [Compound 14], the IC50 in experiment [1] (read-out: IC50) was found to be 42 ± 2.4 µM; in experiment [2] (setting [9]) it was 1.9 ± 0.5 µM; in experiment [3], 170 ± 14 µM. The EC50 was 48 µM in experiment [4] (read-out: EC50 (converted)), 230 µM in experiment [5] (read-out: EC50 (converted)) and 180 µM in experiment [6].

As to `Nc1nc2ccc(N3C(=O)c4cccc5cccc(c45)C3=O)cc2[nH]1` [Compound 15], the IC50 is greater than 300 µM in experiment [1] (read-out: IC50), 69 ± 10 µM in experiment [2] (setting [9]) and 24 ± 6.3 µM in experiment [3]. Further, the results for the EC50 in experiment [4] (read-out: EC50 (converted)), in experiment [5] (read-out: EC50 (converted)) and in experiment [6] were greater than 300 µM, 110 µM and 81 µM, respectively.

In the case of `Nc1nc2ccc(N3C(=O)[C@@H]4[C@H](C3=O)C3(Cl)C(Cl)=C(Cl)C4(Cl)C3(Cl)Cl)cc2[nH]1` [Compound 16], the IC50 in experiment [1] (read-out: IC50) is 5.7 ± 0.5 µM; in experiment [2] (setting [9]) it was 7.4 ± 1.7 µM; in experiment [3], 1.5 ± 0.5 µM. For the same molecule, the EC50 in experiment [4] (read-out: EC50 (converted)) was 9.5 µM; in experiment [5] (read-out: EC50 (converted)), 31 µM; in experiment [6], 33 µM.

In the case of `Nc1nc2ccccc2[nH]1` [Compound 17, reference compound], the “ability to inhibit biofilm formation” value in experiment [1], in experiment [2] (VRE) and in experiment [3] was “Neither compound was able to inhibit” throughout. Further, the “zinc binding, change of 1H NMR signals” value in experiment [7] was “no change”.

With `O=C(O)c1c(Cl)c(Cl)c(Cl)c(Cl)c1C(=O)Nc1ccccc1` [Compound 18, reference compound], the “ability to inhibit biofilm formation” value in experiment [1], in experiment [2] (VRE) and in experiment [3] was “Neither compound was able to inhibit” in each case. For the same molecule, the “zinc binding, change of 1H NMR signals” value in experiment [7] was “no change”.

On to `[Cl-].[Cl-].[Zn+2]` [ZnCl2, reference compound], for which the “effect on biofilm formation” value in experiment [8] is “no effect on biofilm formation”.
